What was measured:
basal myocyte protein = test: Solid phase screening of Library 5 with labeled myocyte protein; type: binding, neonatal Wistar rats; conditions: Normal Myocytes
Method: Myocytes were prepared from 1 to 5 day old neonatal Wistar rats (University of Copenhagen) according to literature procedure described in Busk et al., 2002, Cardiovasc. Res., 56: 64-75 and plated into eight P10 culture plates at 6 million cells/plate.
Protein was extracted from myocytes prepared as described above for Example 9, using a new procedure modified from existing protocols, primarily: Arrott, et al., 1998, Anal Biochem. 258: 1-18. The media was removed from plates and adhered cells were treated for 10 minutes with ice cold phosphate buffer (0.25 mL, 10 mM, pH 7.5, augmented with 0.15 M NaCl 60 mM Benzamidine HCl, 5 mM EDTA, 10 μg/n E-64, 10 μg/mL Leu-peptin, 10 μg/mL Pepstatin A, and 1 mM PMSF). The cells were scraped off the plates and then lysed (on ice) in a sonicator (2×) using 10 seconds off/10 seconds on cycles.
The resulting suspension was augmented with CHAPS, DTT, and urea to a final concentration of CHAPS (1% w/v), DTT (5 mM), and urea (8 M). After 10-15 minutes on ice, the solution was centrifuged for 10 minutes at 15,000 rpm at 4° C. The supernatant was removed and protein content quantified using the NanoOrange Protein test (Molecular Probes, Eugene, Oreg.): Total protein recovered: 70.5 μg for PE-treated cells and 60 μg for basal cells.
Fluorescent dye Oregon Green 514 (OR) (Molecular Probes) was used to label the healthy/basal cells while Rhodamine Red (RR) (Molecular Probes) was used to label the PE-treated cells. The labeling procedures were carried out according to the manufacturer's protocol. […]
(§1) A typical analysis employed 100-300 laser shots. […] The possible identity of the ligand was determined (Narrowed down) by comparing the recorded mass of the ligand with the masses of all possible compounds formed in the library. […]
(§2) Isolated proteins that bound to specific ligands were identified using peptide mass fingerprinting. Mass spectra were recorded on a Bruker Reflex m MALDI time-of-flight mass spectrometer (Bruker-Daltonics, Bremen, Germany) operated in the positive reflectron mode using delayed extraction. […]

Phosphomannose isomerase = molecular target: T1, Phosphomannose isomerase (Candida albicans, UniProt P34948); conditions: in Candida; Wells et al, 1996; cited from earlier work
T1 sequence (P34948 1-441): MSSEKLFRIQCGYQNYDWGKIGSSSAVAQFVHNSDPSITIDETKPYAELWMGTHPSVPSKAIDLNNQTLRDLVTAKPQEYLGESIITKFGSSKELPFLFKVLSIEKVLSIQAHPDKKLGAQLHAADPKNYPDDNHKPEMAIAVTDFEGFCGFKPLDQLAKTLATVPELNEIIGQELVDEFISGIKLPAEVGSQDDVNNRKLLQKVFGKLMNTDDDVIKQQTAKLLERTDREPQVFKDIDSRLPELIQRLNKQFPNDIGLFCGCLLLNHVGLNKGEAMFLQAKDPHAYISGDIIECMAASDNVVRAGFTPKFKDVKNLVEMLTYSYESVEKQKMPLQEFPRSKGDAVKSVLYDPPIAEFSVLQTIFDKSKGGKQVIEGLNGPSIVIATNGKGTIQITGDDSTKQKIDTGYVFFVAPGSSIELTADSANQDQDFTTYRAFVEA

Myocytes = test: Proliferation of myocytes with phenylephrine (in vitro model of hypertrophy); type: cell-based, neonatal Wistar rats; conditions: 10 μM phenylephrine (PE); cells grown for two more days
[1] = molecular target: isoleucine tRNA synthetase (Escherichia coli, UniProt P00956); conditions: Merck Manual; cited from earlier work
[2] = test system: normal porcine macrophage proteins; test: Solid phase screening of Library 4 with labeled porcine viral and macrophage proteins; type: binding; conditions: Normal Macrophages
Description: Alternatively, the fluorescent ligand library beads containing bound protein obtained as described in Examples 47, 48, 49 and 51 were sorted using a COPAS (250) NF Bead Sorter (Union Biometrica, Somerville, Mass.) equipped with a dual detector. Both the cyanine dyes used in the labeling procedure, namely Cy 2 (emission wavelength—510 nm) and Cy 3 (emission wavelength—570 nm) were simultaneously excited at […] The bead selection window was then set-up such that all beads containing significant green fluorescence and no red flourescence were isolated. The unselected beads were then resorted to obtain beads containing red fluorescence (proteins from basal cells). […]
as §1, §2

[3] = test system: Serum induced (hypertrophied) Myocytes proteins; test: Solid phase screening of small molecule biaryl Library 7 with labeled myocyte proteins; type: binding, neonatal Wistar rats

Chain of isoleucine tRNA synthetase (P00956 whole entry): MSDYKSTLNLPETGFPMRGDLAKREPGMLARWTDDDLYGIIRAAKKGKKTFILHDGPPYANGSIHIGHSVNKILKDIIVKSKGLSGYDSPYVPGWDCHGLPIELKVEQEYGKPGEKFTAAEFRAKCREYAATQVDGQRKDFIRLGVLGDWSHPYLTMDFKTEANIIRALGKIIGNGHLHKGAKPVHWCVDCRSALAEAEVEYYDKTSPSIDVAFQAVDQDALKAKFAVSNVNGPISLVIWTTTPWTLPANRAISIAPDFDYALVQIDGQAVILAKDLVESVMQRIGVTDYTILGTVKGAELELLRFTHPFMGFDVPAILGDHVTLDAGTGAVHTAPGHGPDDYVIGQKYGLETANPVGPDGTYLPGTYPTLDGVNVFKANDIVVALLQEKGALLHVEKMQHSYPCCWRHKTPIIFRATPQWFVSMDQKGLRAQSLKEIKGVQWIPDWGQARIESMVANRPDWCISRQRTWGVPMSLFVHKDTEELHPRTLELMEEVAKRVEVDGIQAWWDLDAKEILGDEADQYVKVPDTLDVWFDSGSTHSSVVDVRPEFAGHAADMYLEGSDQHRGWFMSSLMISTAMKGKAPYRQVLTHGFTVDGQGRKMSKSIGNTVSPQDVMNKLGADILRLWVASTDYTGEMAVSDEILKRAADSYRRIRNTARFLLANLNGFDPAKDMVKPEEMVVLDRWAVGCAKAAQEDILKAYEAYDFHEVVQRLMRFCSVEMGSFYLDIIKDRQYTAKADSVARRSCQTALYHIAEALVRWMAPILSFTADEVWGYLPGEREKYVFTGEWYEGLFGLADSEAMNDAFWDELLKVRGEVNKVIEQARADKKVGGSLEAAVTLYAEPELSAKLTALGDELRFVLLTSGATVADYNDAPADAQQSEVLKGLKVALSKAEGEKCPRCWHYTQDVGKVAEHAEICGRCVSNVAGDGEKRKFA

SMILES: O=C(O)c1ccc(CN2C[C@@H](CN(C(=O)c3ccccc3)C3(C(=O)O)CCCC3)N3C(=O)c4ccccc4[C@H]23)cc1 [HY3]
- Identified Protein(s) (basal myocyte protein): NADH-ubiquinone oxidoreductase B14 subunit (Q9CQZ5).

SMILES: Nc1ccc(S(=O)(=O)Nc2ncccn2)cc1 [sulfadiazene]
- inhibition of phosphomannose isomerase (Phosphomannose isomerase): inhibited

SMILES: CNC[C@H](O)c1cccc(O)c1 [PE, phenylephrine]
- cell size at time of harvest (Myocytes): significantly enlarged

SMILES: C/C(=C\C(=O)OCCCCCCCCC(=O)O)C[C@@H]1OC[C@H](C[C@@H]2O[C@H]2[C@@H](C)[C@H](C)O)[C@@H](O)[C@H]1O [Mupirocin]
- inhibition of isoleucine tRNA synthetase [1]: inhibits the enzyme isoleucine tRNA synthetase

SMILES: C[C@H](NC(=O)[C@@H]1CCCCNC(=O)N1)C(=O)O [HY1]
- Identified Protein(s) [2]: Protein kinase C binding protein 1 also contains a zinc finger domain with protein 8) (Q9U1U4); Guanine nucle- otide-binding protein G(S), alpha subunit (Adenylate cy- clase-stimulating G alpha protein) (P048949).

SMILES: CC(CCc1ccccc1)N1C[C@@H](CN2Cc3ccccc3CC2C(=O)O)N2C(=O)c3ccccc3[C@H]12 (stereo partly shown) [HY5]
- Identified Protein(s) (basal myocyte protein): Myosin Va (Myosin 5A, dilute myosin heavy chain, non muscle (Q9Y411).

SMILES: O=C1NCCC[C@@H](C(=O)N[C@@H](CCc2ccccc2)C(=O)O)N1 [HY2]
- Identified Protein(s) [2]: Protein kinase byr2 (Protein kinase ste8) (MAP kinase) (P28829); Similar to protein kinase 2 (Testicular) (Q885R6); Thiamine-triphosphatase (Q8CgV7).

SMILES: COc1ccc(Br)c(OC)c1C(=O)NC1(C(=O)O)CCCCC1
- Identified Protein(s) [3]: Translin-associated protein X (Q99598); Hypothetical Protein ORF-1137 (P11260); Integrin alpha-1 (Laminin and collagen receptor VLA-1,CD49a) (P56199_.

SMILES: O=C1c2ccccc2[C@@H]2N(Cc3ccc(O)cc3)C[C@@H](CN(C(=O)CCc3ccccc3)C3(C(=O)O)CCCC3)N12 [HY4]
- Identified Protein(s) (basal myocyte protein): NADH-ubiquinone oxidoreductase B14 subunit (Q9CQZ5).

SMILES: O=C(O)CNC(=O)c1ccc(-c2ccco2)o1
- Identified Protein(s) [3]: Serine-threonine kinase (gi 474842); Hemopexin precur- sor (Beta-1B-glycoprotein) (P02790); 116 kDa U5 small nuclear ribonucleoprotein component (O08810).

From patent publication US20060257875A1, “Affinity screening using "one-bead-one-compound" libraries” (Carlsberg A/S, priority 2003, published 2006)
